According to patent US10709714B2 (CL BioSciences LLC, priority 2013, dated 2020):
Entries after “also recorded” stand apart in the source; their conditions may differ. Marks after values point to notes of the source that are not given here.

Columns and labels:
ovariectomized CD-1 mice [1] = assay: MicroCT of trabecular and cortical bone, Model 1 mouse OVX; type: in vivo
CCK2 receptor = target: T1, CCK2 receptor (Homo sapiens, UniProt P32239); assay: Gastrin-stimulated cAMP production and calcitonin release/transcription in MTC-SK cells; type: cell-based; details: MTC-SK cells
T1 construct: Gastrin stimulated both cAMP as well as calcitonin release from the well-differentiated human MTC cell line, MTC-SK; endogenous in cells; host or cells: MTC-SK (human medullary thyroid carcinoma cell line)
T1 sequence (P32239 1-447): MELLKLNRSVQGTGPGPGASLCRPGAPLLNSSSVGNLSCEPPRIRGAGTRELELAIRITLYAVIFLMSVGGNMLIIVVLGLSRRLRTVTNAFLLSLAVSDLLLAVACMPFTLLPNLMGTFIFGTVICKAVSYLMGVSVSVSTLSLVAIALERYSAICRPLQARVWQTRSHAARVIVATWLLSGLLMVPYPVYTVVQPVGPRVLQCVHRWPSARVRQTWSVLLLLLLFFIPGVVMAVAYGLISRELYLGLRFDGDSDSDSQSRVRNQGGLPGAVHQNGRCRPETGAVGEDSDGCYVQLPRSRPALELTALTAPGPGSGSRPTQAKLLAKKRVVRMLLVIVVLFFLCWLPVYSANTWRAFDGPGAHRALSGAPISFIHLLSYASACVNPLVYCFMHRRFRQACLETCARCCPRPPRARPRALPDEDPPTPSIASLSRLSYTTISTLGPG

ovariectomized CD rats [2] = assay: MicroCT of trabecular and cortical bone, Model 2 rat OVX
Description: Microcomputed tomography (MicroCT) and bone bending as well as osmium uptake and PCR were used to evaluate bone dynamics and osteoporotic features in the different animal models. MicroCT assesses density and volume of both the trabecular and cortical bones. Measurements of the radius and circumference of the cortical bone can be undertaken. Calculations of the connectivity density, the structural model index (SMI) as well as the stiffness (all measures of structure) of the bone can be made. The polar moment of inertia (pMOI) as well as fracture and workloads identify the underlying bone strength.
Both mice and rats were exposed to the PPI, omeprazole, while the Mastomys were exposed to the H2 Receptor antagonist, loxitidine. GA administration was a single subcutaneous injection at the start of acid inhibition. Pharmacokinetically, this dose ranges between 15-20 nmol over an 8 week period.
Three groups were included for each animal model: a) Group A=placebo/saline treated (no OVX/Controls); b) Group B=OVX+Acid Inhibitory therapy (OVX); and c) Group C=GA treated ovariectomized animals (OVX+GA). At the termination of study (2 months), we evaluated whether the GA reversed the OVX-mediated alterations in bone parameters (microCT, bone strength and histomorphometry as well as circulating markers).
At the start of GA treatment, animals were 98 days (3.2 months) and at study termination, they were 163 days (5.4 months).

[3] = system: human PTH cells co-cultured with MTC-SK cell line; assay: PTH cell / MTC-SK co-culture: PTH and calcitonin transcription and secretion; type: cell-based; details: preincubation 10 mins, YF476 10 nM
Description: Human PTH cells isolated from surgical specimens were co-cultured with the MTC-SK cell line. […] These effects could be reversed by preincubation (10 mins) with the selective CCK2 receptor antagonist, YF476 (10 nM). […] PET=polyester membrane ([…]).
These effects were reversed by preincubation with the selective CCK2 antagonist, YF476.

[4] = system: calvarial osteoblasts, hFOB, BMMSCs; assay: Proliferation (BrdU uptake) of bone-derived cells; type: cell-based, mouse, human; details: pre-incubation
ovariectomized CD rats [5] = assay: Circulating blood markers, Model 2 rat OVX; type: in vivo
Description: Ovariectomy increased PINP and osteocalcin. […] CON=control animals, OVX=ovariectomized animals, OVX+GA=gastrin antagonist treated ovariectomized animals. Mean±SEM. *p<0.05 vs. CON, **p<0.05 vs. OVX alone.
Circulating bone biomarkers were also altered by OVX. Specifically, both PINP (0.57±0.18 ng/ml vs. 0.35±0.06, p<0.05) and osteocalcin was elevated (1.35±0.9 ng/ml vs. 0.43±0.07, p<0.05). Treatment with the antagonist attenuated each of these ovariectomy-mediated alterations.

ovariectomized CD-1 mice [6] = assay: Circulating blood markers, Model 1 mouse OVX; type: in vivo
Description: Ovariectomy increased all three bone markers, PINP, CTX1 and osteocalcin. […] CON=control animals, OVX=ovariectomized animals, OVX+GA=gastrin antagonist treated ovariectomized animals. Mean±SEM. *p<0.05 vs. CON, **p<0.05 vs. OVX alone.
Circulating bone biomarkers were also altered by OVX. Specifically, PINP was increased (0.19±0.01 ng/ml vs. 0.1y±0.006, p<0.05) as was CTx-1 (0.60±0.14 ng/ml vs. 0.29±0.13, p<0.05) and osteocalcin was elevated (6.7±2.3 ng/ml vs. 4.1±1.2, p<0.05). Treatment with the antagonist attenuated each of these three ovariectomy-mediated alterations.

[7] = OVX CD-1 mice + omeprazole, GA 15 ug/animal single s.c., 8 weeks, cortical bone
[8] = OVX CD-1 mice + omeprazole, GA 15 ug/animal single s.c., 8 weeks, trabecular bone
[9] = OVX CD-1 mice, GA-treated vs control, cortical bone
[10] = OVX CD-1 mice, GA-treated vs control, trabecular bone
[11] = OVX CD rats + omeprazole, GA 50 ug/animal single s.c., 8 weeks, cortical bone
[12] = OVX CD rats + omeprazole, GA 50 ug/animal single s.c., 8 weeks, trabecular bone
[13] = OVX CD rats + omeprazole, GA 50 ug/animal single s.c., 8 weeks, trabecular bone, listed as GA
[14] = OVX CD rats + omeprazole, GA 50 ug/animal single s.c., 8 weeks, trabecular bone, listed as Gastrin antagonist
[15] = OVX CD rats, GA-treated vs control, cortical bone
[16] = OVX CD rats, GA-treated vs control, trabecular bone
[17] = OVX CD rats + omeprazole, GA 50 ug/animal single s.c., 8 weeks
[18] = OVX CD rats, GA-treated vs control
[19] = OVX CD-1 mice + omeprazole, GA 15 ug/animal single s.c., 8 weeks
[20] = OVX CD-1 mice, GA-treated vs control

CNc1cccc(NC(=O)N[C@@H]2N=C(c3ccccn3)c3ccccc3N(CC(=O)C(C)(C)C)C2=O)c1 [YF476, netazepide]
BS (ovariectomized CD-1 mice [1]; [7]): 11.3
BV/TV (ovariectomized CD-1 mice [1]; [7]): 0.93
Ct. Th (ovariectomized CD-1 mice [1]; [7]): 0.21
pMOI (ovariectomized CD-1 mice [1]; [7]): 0.35
Dens (Apparent Density, cortical) (ovariectomized CD-1 mice [1]; OVX CD-1 mice + omeprazole, GA 15 ug/animal single s.c., 8 weeks, cortical bone, listed as GA): 1025
Dens (Apparent Density, cortical) (ovariectomized CD-1 mice [1]; OVX CD-1 mice + omeprazole, GA 15 ug/animal single s.c., 8 weeks, cortical bone, listed as Gastrin-antagonist): 1025±37
BS (ovariectomized CD-1 mice [1]; [8]): 16.8
BV/TV (ovariectomized CD-1 mice [1]; [8]): 0.123
Conns-Dens (ovariectomized CD-1 mice [1]; [8]): 128.6
SMI (ovariectomized CD-1 mice [1]; [8]): 1.38
Tb. N (ovariectomized CD-1 mice [1]; [8]): 2.43
Tb. Sp (ovariectomized CD-1 mice [1]; [8]): 0.528
Tb. Th (ovariectomized CD-1 mice [1]; [8]): 0.051
Dens (Apparent Density, trabecular) (ovariectomized CD-1 mice [1]; OVX CD-1 mice + omeprazole, GA 15 ug/animal single s.c., 8 weeks, trabecular bone, listed as GA): 70.7
Dens (Apparent Density, trabecular) (ovariectomized CD-1 mice [1]; OVX CD-1 mice + omeprazole, GA 15 ug/animal single s.c., 8 weeks, trabecular bone, listed as Gastrin antagonist): 70.7±19
% Change BS (ovariectomized CD-1 mice [1]; [9]): −15%*
% Change BV/TV (ovariectomized CD-1 mice [1]; [9]): 2%*
% Change Ct. Th (ovariectomized CD-1 mice [1]; [9]): +39%*^,**
% Change Dens (Apparent Density, cortical) (ovariectomized CD-1 mice [1]; [9]): −11%*^,**
% Change pMOI (ovariectomized CD-1 mice [1]; [9]): −11%
% Change BS (ovariectomized CD-1 mice [1]; [10]): −32%*^, **
% Change BV/TV (ovariectomized CD-1 mice [1]; [10]): −33%*^, **
% Change Conns-Dens (ovariectomized CD-1 mice [1]; [10]): −62%*^, **
% Change Dens (Apparent Density, trabecular) (ovariectomized CD-1 mice [1]; [10]): −60%*^, **
% Change SMI (ovariectomized CD-1 mice [1]; [10]): +20%**
% Change Tb. N (ovariectomized CD-1 mice [1]; [10]): −30%*^, **
% Change Tb. Sp (ovariectomized CD-1 mice [1]; [10]): +82%*
% Change Tb. Th (ovariectomized CD-1 mice [1]; [10]): +28%*
effect on gastrin-mediated calcitonin secretion (CCK2 receptor): reversed
effect on gastrin-stimulated cAMP production (CCK2 receptor): reversed
effect alone on cAMP production (CCK2 receptor; without gastrin): no significant effect
BS (ovariectomized CD rats [2]; [11]): 43.3
BV/TV (ovariectomized CD rats [2]; [11]): 0.965
Ct. Th (ovariectomized CD rats [2]; [11]): 0.68
pMOI (ovariectomized CD rats [2]; [11]): 14.03
Dens (Apparent Density, cortical) (ovariectomized CD rats [2]; OVX CD rats + omeprazole, GA 50 ug/animal single s.c., 8 weeks, cortical bone, listed as GA): 1098
Dens (Apparent Density, cortical) (ovariectomized CD rats [2]; OVX CD rats + omeprazole, GA 50 ug/animal single s.c., 8 weeks, cortical bone, listed as Gastrin-antagonist): 1098±24
BS (ovariectomized CD rats [2]; [12]): 154
BV/TV (ovariectomized CD rats [2]; [12]): 0.189
Conns-Dens (ovariectomized CD rats [2]; [12]): 68.58
Tb. N (ovariectomized CD rats [2]; [12]): 2.17
Tb. Sp (ovariectomized CD rats [2]; [12]): 0.48
Tb. Th (ovariectomized CD rats [2]; [12]): 0.09
Dens (Apparent Density, trabecular) (ovariectomized CD rats [2]; [13]): 200.5
SMI (ovariectomized CD rats [2]; [13]): 1.33
Dens (Apparent Density, trabecular) (ovariectomized CD rats [2]; [14]): 204±27
SMI (ovariectomized CD rats [2]; [14]): 1.3±0.17
% Change BS (ovariectomized CD rats [2]; [15]): −13%*
% Change BV/TV (ovariectomized CD rats [2]; [15]): 0%**
% Change Ct. Th (ovariectomized CD rats [2]; [15]): +12%*
% Change Dens (Apparent Density, cortical) (ovariectomized CD rats [2]; [15]): −4%*^,**
% Change pMOI (ovariectomized CD rats [2]; [15]): −22%*
% Change BS (ovariectomized CD rats [2]; [16]): −21%
% Change BV/TV (ovariectomized CD rats [2]; [16]): −30%**
% Change Conns-Dens (ovariectomized CD rats [2]; [16]): +8%
% Change Dens (Apparent Density, trabecular) (ovariectomized CD rats [2]; [16]): −30%*^, **
% Change SMI (ovariectomized CD rats [2]; [16]): +143%*
% Change Tb. N (ovariectomized CD rats [2]; [16]): −18%**
% Change Tb. Sp (ovariectomized CD rats [2]; [16]): +9%**
% Change Tb. Th (ovariectomized CD rats [2]; [16]): −13%**
effect on gastrin effects in co-culture [3]: reversed
effect on gastrin-stimulated proliferation [4]: not inhibited; also recorded: not reversed
CTX1 (ovariectomized CD rats [5]; [17]): 0.42
ESR (circulating estrogen) (ovariectomized CD rats [5]; [17]): 2.1 pg/mL
Gastrin (circulating) (ovariectomized CD rats [5]; [17]): 2971 pg/mL
Osteocalcin (ovariectomized CD rats [5]; [17]): 0.80 ng/mL
PINP (ovariectomized CD rats [5]; [17]): 0.48 ng/mL
PTH (circulating) (ovariectomized CD rats [5]; [17]): 1562
% Change CTX1 (ovariectomized CD rats [5]; [18]): −49%
% Change ESR (ovariectomized CD rats [5]; [18]): −60%*
% Change Gastrin (ovariectomized CD rats [5]; [18]): +183%*
% Change Osteocalcin (ovariectomized CD rats [5]; [18]): +81%**
% Change PINP (ovariectomized CD rats [5]; [18]): +41%
% Change PTH (ovariectomized CD rats [5]; [18]): −15%
CTX-1 (ovariectomized CD-1 mice [6]; [19]): 053 ng/mL
ESR (circulating estrogen) (ovariectomized CD-1 mice [6]; [19]): 1.47 pg/mL
Gastrin (circulating) (ovariectomized CD-1 mice [6]; [19]): 2971 pg/mL
Osteocalcin (ovariectomized CD-1 mice [6]; [19]): 5.3 ng/mL
PINP (ovariectomized CD-1 mice [6]; [19]): 0.169 ng/mL
PTH (circulating) (ovariectomized CD-1 mice [6]; [19]): 92.1 pg/mL
% Change CTX-1 (ovariectomized CD-1 mice [6]; [20]): −9%**
% Change ESR (ovariectomized CD-1 mice [6]; [20]): −71%*
% Change Gastrin (ovariectomized CD-1 mice [6]; [20]): +22%
% Change Osteocalcin (ovariectomized CD-1 mice [6]; [20]): +30%**
% Change PINP (ovariectomized CD-1 mice [6]; [20]): 0%**
% Change PTH (ovariectomized CD-1 mice [6]; [20]): +79%*
